Data set [1] deals with HCT116 (human colorectal carcinoma) cells. The data set can be described thus: Cell growth inhibition assay, HCT116. It is filed as cell-based. The protocol:
(§1) A population of cells (>1×10^6 cells/mL as determined with a hemocytometer) was diluted with an appropriate amount of Dulbecco-modified Eagle Medium (DMEM, Gibco) containing 10% fetal bovine serum (FBS, Gibco) to a final concentration of 30,000 cells/mL.
(§2) To each well of a 96-well plate (Corning Costar), 100 μL of the cell-media solution was added with a multichannel pipette. The cultures were incubated at 37° C. in an atmosphere of 5% CO2 and 95% humidified air for 24 hours. The test compounds were added to the plate as follows: test substances were diluted in DMSO to a concentration of 1 mM and 10-fold serial dilutions were performed on a separate 96-well plate. Fresh culture medium (100 μL) was added to each well of cells to constitute 200 μL of medium per well followed by 2 μL of each test agent. Compounds were tested in duplicate (n=2-8 times) at six concentrations between 0-1,000 nM or 0-10,000 nM. Following addition, cultures were incubated for an additional 72 hours.
(§3) The plates were incubated at 37° C. for either 5 minutes (L1210) or 15 minutes (HCT116 and HCT116/VM46).

Data set [2] has as its system L1210 (mouse lymphocytic leukemia) cells. Kind of data set: Cell growth inhibition assay, L1210. It is filed as cell-based. The settings on record: L1210 murine leukemia cell line; avg of 4-16 determinations. The protocol:
as §1, §2, §3

For data set [3], the system named is HCT116/VM46 (vinblastine-resistant strain of HCT116, Pgp over-expression) cells. The data set can be described thus: Cell growth inhibition assay, HCT116/VM46. Particulars: for IC50: read-out: IC50 (nM) HCT116/VM46, resistant human colon cancer cell line, Pgp over-expression; for fold improvement over vinblastine, HCT116/VM46: relative to vinblastine. The protocol:
as §1, §2, §3

[4] abbreviates: HCT116 human colon cancer cell line, avg of 4-16 determinations, read-out: IC50 (nM) HCT116.

Where two headings read alike, the source gives them in different places. A value given as a limit tells only on which side of the number the result lay.

Regarding `CC[C@]1(NC(=O)Oc2ccc([N+](=O)[O-])cc2)C[C@@H]2CN(CCc3c([nH]c4ccccc34)[C@@](C(=O)OC)(c3cc4c(cc3OC)N(C)[C@H]3[C@@](O)(C(=O)OC)[C@H](OC(C)=O)[C@]5(CC)C=CCN6CC[C@]43[C@@H]65)C2)C1` [Compound 13], the IC50 in data set [1] (setting [4]) was determined as 55 nM.

As for `CCC1(NC(=O)NC)CC2CN(CCc3c([nH]c4ccccc34)C(C(=O)OC)(c3cc4c(cc3OC)N(C)C3C(O)(C(=O)OC)C(OC(C)=O)C5(CC)C=CCN6CCC43C65)C2)C1` (stereo not shown) [Compound 14], the IC50 in data set [2] was determined as 5.7 nM; in data set [1] (setting [4]) it was 0.82 nM; in data set [3], 530 nM.

Consider `CCNC(=O)N[C@@]1(CC)C[C@@H]2CN(CCc3c([nH]c4ccccc34)[C@@](C(=O)OC)(c3cc4c(cc3OC)N(C)[C@H]3[C@@](O)(C(=O)OC)[C@H](OC(C)=O)[C@]5(CC)C=CCN6CC[C@]43[C@@H]65)C2)C1` [Compound 15], for which the IC50 stood at 2.1 nM in data set [2], 0.73 nM in data set [1] (setting [4]) and 90 nM in data set [3]. The “fold improvement over vinblastine, HCT116/VM46” value (shortened to “fold improvement”) in data set [3] is recorded as 10 fold.

As for `CCCNC(=O)N[C@@]1(CC)C[C@@H]2CN(CCc3c([nH]c4ccccc34)[C@@](C(=O)OC)(c3cc4c(cc3OC)N(C)[C@H]3[C@@](O)(C(=O)OC)[C@H](OC(C)=O)[C@]5(CC)C=CCN6CC[C@]43[C@@H]65)C2)C1` [Compound 16], the results for the IC50 in data set [2], in data set [1] (setting [4]) and in data set [3] were 6 nM, 2.7 nM and 221 nM, respectively.

`CC[C@]1(NC(=O)NC(C)C)C[C@@H]2CN(CCc3c([nH]c4ccccc34)[C@@](C(=O)OC)(c3cc4c(cc3OC)N(C)[C@H]3[C@@](O)(C(=O)OC)[C@H](OC(C)=O)[C@]5(CC)C=CCN6CC[C@]43[C@@H]65)C2)C1` [Compound 17]: the values for the IC50 in data set [2], in data set [1] (setting [4]) and in data set [3] were 5.5 nM, 5.7 nM and 430 nM, respectively.

`CC[C@]1(NC(=O)NC2CC2)C[C@@H]2CN(CCc3c([nH]c4ccccc34)[C@@](C(=O)OC)(c3cc4c(cc3OC)N(C)[C@H]3[C@@](O)(C(=O)OC)[C@H](OC(C)=O)[C@]5(CC)C=CCN6CC[C@]43[C@@H]65)C2)C1` [Compound 18]: the IC50 in data set [2] worked out at 3.9 nM; in data set [1] (setting [4]), 0.73 nM; in data set [3] it was 85 nM. Further, in data set [3], the “fold improvement” value came to 10 fold.

With `CCCCNC(=O)N[C@@]1(CC)C[C@@H]2CN(CCc3c([nH]c4ccccc34)[C@@](C(=O)OC)(c3cc4c(cc3OC)N(C)[C@H]3[C@@](O)(C(=O)OC)[C@H](OC(C)=O)[C@]5(CC)C=CCN6CC[C@]43[C@@H]65)C2)C1` [Compound 19], the results for the IC50 in data set [2], in data set [1] (setting [4]) and in data set [3] were 5.7 nM, 4.6 nM and 270 nM, respectively.

Take `CC[C@]1(NC(=O)NC(C)(C)C)C[C@@H]2CN(CCc3c([nH]c4ccccc34)[C@@](C(=O)OC)(c3cc4c(cc3OC)N(C)[C@H]3[C@@](O)(C(=O)OC)[C@H](OC(C)=O)[C@]5(CC)C=CCN6CC[C@]43[C@@H]65)C2)C1` [Compound 20]: the IC50 in data set [2] was 40 nM; in data set [1] (setting [4]) it was 20 nM; in data set [3], 670 nM.

Turning to `CC[C@]1(NC(=O)NC2CCCCC2)C[C@@H]2CN(CCc3c([nH]c4ccccc34)[C@@](C(=O)OC)(c3cc4c(cc3OC)N(C)[C@H]3[C@@](O)(C(=O)OC)[C@H](OC(C)=O)[C@]5(CC)C=CCN6CC[C@]43[C@@H]65)C2)C1` [Compound 21], the figures for the IC50 in data set [2], in data set [1] (setting [4]) and in data set [3] were 5.8 nM, 5.4 nM and 450 nM, respectively.

For the compound `CC[C@]1(NC(=O)NCCO)C[C@@H]2CN(CCc3c([nH]c4ccccc34)[C@@](C(=O)OC)(c3cc4c(cc3OC)N(C)[C@H]3[C@@](O)(C(=O)OC)[C@H](OC(C)=O)[C@]5(CC)C=CCN6CC[C@]43[C@@H]65)C2)C1` [Compound 22], the figures for the IC50 in data set [2], in data set [1] (setting [4]) and in data set [3] were 48 nM, 8.8 nM and more than 1000 nM, respectively.

As for `CC[C@]1(NC(=O)Nc2ccccc2)C[C@@H]2CN(CCc3c([nH]c4ccccc34)[C@@](C(=O)OC)(c3cc4c(cc3OC)N(C)[C@H]3[C@@](O)(C(=O)OC)[C@H](OC(C)=O)[C@]5(CC)C=CCN6CC[C@]43[C@@H]65)C2)C1` [Compound 23], the results for the IC50 in data set [2], in data set [1] (setting [4]) and in data set [3] were 6.5 nM, 5.1 nM and 390 nM, respectively.

As for `CC[C@]1(NC(=O)Nc2ccc(F)cc2)C[C@@H]2CN(CCc3c([nH]c4ccccc34)[C@@](C(=O)OC)(c3cc4c(cc3OC)N(C)[C@H]3[C@@](O)(C(=O)OC)[C@H](OC(C)=O)[C@]5(CC)C=CCN6CC[C@]43[C@@H]65)C2)C1` [Compound 24], the IC50 in data set [2] worked out at 5.7 nM; in data set [1] (setting [4]), 3.9 nM; in data set [3], 400 nM.

For `CC[C@]1(NC(=O)Nc2ccc(Cl)cc2)C[C@@H]2CN(CCc3c([nH]c4ccccc34)[C@@](C(=O)OC)(c3cc4c(cc3OC)N(C)[C@H]3[C@@](O)(C(=O)OC)[C@H](OC(C)=O)[C@]5(CC)C=CCN6CC[C@]43[C@@H]65)C2)C1` [Compound 25], the IC50 was 6.2 nM in data set [2], 6.7 nM in data set [1] (setting [4]) and 590 nM in data set [3].

With `CC[C@]1(NC(=O)Nc2ccc(C)cc2)C[C@@H]2CN(CCc3c([nH]c4ccccc34)[C@@](C(=O)OC)(c3cc4c(cc3OC)N(C)[C@H]3[C@@](O)(C(=O)OC)[C@H](OC(C)=O)[C@]5(CC)C=CCN6CC[C@]43[C@@H]65)C2)C1` [Compound 26], the values for the IC50 in data set [2], in data set [1] (setting [4]) and in data set [3] were 4.5 nM, 4.8 nM and 330 nM, respectively.

Regarding `CC[C@]1(NC(=S)NC2CCCCC2)C[C@@H]2CN(CCc3c([nH]c4ccccc34)[C@@](C(=O)OC)(c3cc4c(cc3OC)N(C)[C@H]3[C@@](O)(C(=O)OC)[C@H](OC(C)=O)[C@]5(CC)C=CCN6CC[C@]43[C@@H]65)C2)C1` [Compound 36], the values for the IC50 in data set [1] (setting [4]) and in data set [3] were 20 nM and 520 nM, respectively.

For `CCC1(NC(=S)Nc2ccccc2)CC2CN(CCc3c([nH]c4ccccc34)C(C(=O)OC)(c3cc4c(cc3OC)N(C)C3C(O)(C(=O)OC)C(OC(C)=O)C5(CC)C=CCN6CCC43C65)C2)C1` (stereo not shown) [Compound 37], the figures for the IC50 in data set [1] (setting [4]) and in data set [3] were 40 nM and 650 nM, respectively.

On to `CC[C@]1(NC(=S)NCCc2ccc(F)cc2)C[C@@H]2CN(CCc3c([nH]c4ccccc34)[C@@](C(=O)OC)(c3cc4c(cc3OC)N(C)[C@H]3[C@@](O)(C(=O)OC)[C@H](OC(C)=O)[C@]5(CC)C=CCN6CC[C@]43[C@@H]65)C2)C1` [Compound 38], for which the IC50 was found to be 60 nM in data set [1] (setting [4]) and 750 nM in data set [3].

For the compound `CCN(CC)C(=O)N[C@@]1(CC)C[C@@H]2CN(CCc3c([nH]c4ccccc34)[C@@](C(=O)OC)(c3cc4c(cc3OC)N(C)[C@H]3[C@@](O)(C(=O)OC)[C@H](OC(C)=O)[C@]5(CC)C=CCN6CC[C@]43[C@@H]65)C2)C1` [Compound 40], the IC50 in data set [1] (setting [4]) came out at 6.7 nM; in data set [3], 450 nM.

As for `CCC1(NC(=S)N(C)C)CC2CN(CCc3c([nH]c4ccccc34)C(C(=O)OC)(c3cc4c(cc3OC)N(C)C3C(O)(C(=O)OC)C(OC(C)=O)C5(CC)C=CCN6CCC43C65)C2)C1` (stereo not shown) [Compound 43], the values for the IC50 in data set [1] (setting [4]) and in data set [3] were 8.7 nM and 250 nM, respectively. Besides, the “activity difference between sensitive HCT116 and vinblastine-resistant HCT116/VM46” value in data set [3] (HCT116/VM46 vs HCT116) came to 10 fold.

As to `CCC1(OC(=O)N(C)C)CC2CN(CCc3c([nH]c4ccccc34)C(C(=O)OC)(c3cc4c(cc3OC)N(C)C3C(O)(C(=O)OC)C(OC(C)=O)C5(CC)C=CCN6CCC43C65)C2)C1` (stereo not shown) [Compound 44], in data set [1] (HCT116), the “fold less active than N,N-dimethyl urea or thiourea 39 and 43” value is more than 1000 fold. The results for the IC50 in data set [1] (setting [4]) and in data set [3] were 4700 nM and 9100 nM, respectively.

As for `CC[C@]1(NC)C[C@@H]2CN(CCc3c([nH]c4ccccc34)[C@@](C(=O)OC)(c3cc4c(cc3OC)N(C)[C@H]3[C@@](O)(C(=O)OC)[C@H](OC(C)=O)[C@]5(CC)C=CCN6CC[C@]43[C@@H]65)C2)C1` [Compound 45, 20′-(methylamino)vinblastine], the IC50 in data set [1] (setting [4]) is 60 nM; in data set [3], 8500 nM.

For `CC[C@]12C=CCN3CC[C@@]4(c5cc([C@@]6(C(=O)OC)C[C@H]7CN(CCc8c6[nH]c6ccccc86)C[C@@](CC)(N(C)C)C7)c(OC)cc5N(C)[C@H]4[C@@](O)(C(=O)OC)[C@@H]1OC(C)=O)[C@@H]32` [Compound 46], the IC50 in data set [1] (setting [4]) was 980 nM; in data set [3] it was more than 10000 nM.

For the compound `CCNC(=O)N(C)[C@@]1(CC)C[C@@H]2CN(CCc3c([nH]c4ccccc34)[C@@](C(=O)OC)(c3cc4c(cc3OC)N(C)[C@H]3[C@@](O)(C(=O)OC)[C@H](OC(C)=O)[C@]5(CC)C=CCN6CC[C@]43[C@@H]65)C2)C1` [Compound 47], the “fold decrease in activity between 15 and 47” value in data set [1] (HCT116) worked out at 700 fold. Moreover, the IC50 in data set [1] (setting [4]) worked out at 520 nM; in data set [3], 8500 nM.

On to `CCNC(=O)NC1(CC)CC2CN(CCc3c([nH]c4ccc(F)cc34)C(C(=O)OC)(c3cc4c(cc3OC)N(C)C3C(O)(C(=O)OC)C(OC(C)=O)C5(CC)C=CCN6CCC43C65)C2)C1` (stereo not shown) [Compound 49], for which the “fold more potent than vinblastine, HCT116” value in data set [1] (relative to vinblastine) is “at least 10 fold”. For the same compound, the IC50 in data set [1] (text values in pM, read-out: IC50 HCT116) came to 0.62 nM. For the same compound, in data set [3], the IC50 was determined as 70 nM and the “fold improvement” value is approximately 10 fold.

Values taken from US20150291610A1, “C20' Urea Derivatives of Vinca Alkaloids” (THE SCRIPPS RESEARCH INSTITUTE, priority 2012, published 2015).
